Values after ≈ are worked out from the molar mass of the structure shown.
Tests used:
Format in all cases: functional
[1] = test system: Staphylococcus epidermidis; assay: Antibacterial activity against methicillin-susceptible Staphylococcus epidermidis by microdilution broth method
Staphylococcus aureus [2] = assay: Antibacterial activity against methicillin-susceptible Staphylococcus aureus by microdilution broth method
[3] = test system: Staphylococcus epidermidis; assay: Antibacterial activity against methicillin-resistant Staphylococcus epidermidis by microdilution broth method
Streptococcus pneumoniae = assay: Antibacterial activity against penicillin-resistant Streptococcus pneumoniae by microdilution broth method
Enterococcus faecalis = assay: Antibacterial activity against Enterococcus faecalis by microdilution broth method
Staphylococcus aureus [4] = assay: Antibacterial activity against methicillin-resistant Staphylococcus aureus by microdilution broth method
[5] = test system: Staphylococcus epidermidis; assay: Antibacterial activity against methicillin-resistant Staphylococcus epidermidis 03427 infected po dosed KunMing mouse
Staphylococcus aureus [6] = assay: Antibacterial activity against methicillin-resistant Staphylococcus aureus BAA-42 infected po dosed KunMing mouse
Staphylococcus aureus [7] = assay: Antibacterial activity against methicillin-susceptible Staphylococcus aureus 04-5 infected po dosed KunMing mouse

Row | Compound | MIC [1] | MIC (Staphylococcus aureus [2]) | MIC [3] | MIC (Streptococcus pneumoniae) | MIC (Enterococcus faecalis) | MIC (Staphylococcus aureus [4]) | ED50 [5] | ED50 (Staphylococcus aureus [6]) | ED50 (Staphylococcus aureus [7])
1 | Cc1ccc(S(=O)(=O)N2CCN(c3ccc(N4C[C@H](Cn5ccnn5)OC4=O)cc3F)CC2)cc1 | 0.5 mg/L (≈ 0.999 µM) | 1 mg/L (≈ 2 µM) | 2 mg/L (≈ 4 µM) | 1 mg/L (≈ 2 µM) | 2 mg/L (≈ 4 µM) | 1 mg/L (≈ 2 µM) | – | – | –
2 | O=C1O[C@@H](Cn2ccnn2)CN1c1ccc(N2CCN(S(=O)(=O)c3cccs3)CC2)c(F)c1 | 1 mg/L (≈ 2.03 µM) | 1 mg/L (≈ 2.03 µM) | 1 mg/L (≈ 2.03 µM) | 1 mg/L (≈ 2.03 µM) | 1 mg/L (≈ 2.03 µM) | 1 mg/L (≈ 2.03 µM) | – | – | –
3 | O=C1O[C@@H](Cn2ccnn2)CN1c1ccc(N2CCN(S(=O)(=O)c3ccc(F)cc3F)CC2)c(F)c1 | 1 mg/L (≈ 1.91 µM) | 2 mg/L (≈ 3.83 µM) | 1 mg/L (≈ 1.91 µM) | 2 mg/L (≈ 3.83 µM) | 2 mg/L (≈ 3.83 µM) | 2 mg/L (≈ 3.83 µM) | – | – | –
4 | COc1ccc(S(=O)(=O)N2CCN(c3ccc(N4C[C@H](Cn5ccnn5)OC4=O)cc3F)CC2)cc1 | 2 mg/L (≈ 3.87 µM) | 1 mg/L (≈ 1.94 µM) | 2 mg/L (≈ 3.87 µM) | 0.5 mg/L (≈ 0.968 µM) | 2 mg/L (≈ 3.87 µM) | 0.5 mg/L (≈ 0.968 µM) | – | – | –
5 | O=C1O[C@@H](Cn2ccnn2)CN1c1ccc(N2CCN(S(=O)(=O)c3ccccc3C(F)(F)F)CC2)c(F)c1 | 2 mg/L (≈ 3.61 µM) | 1 mg/L (≈ 1.8 µM) | 2 mg/L (≈ 3.61 µM) | 0.5 mg/L (≈ 0.902 µM) | 2 mg/L (≈ 3.61 µM) | 0.5 mg/L (≈ 0.902 µM) | – | – | –
6 | O=C1O[C@@H](Cn2ccnn2)CN1c1ccc(N2CCNCC2)c(F)c1 | 1 mg/L (≈ 2.89 µM) | 1 mg/L (≈ 2.89 µM) | 1 mg/L (≈ 2.89 µM) | 1 mg/L (≈ 2.89 µM) | 2 mg/L (≈ 5.77 µM) | 1 mg/L (≈ 2.89 µM) | – | – | –
7 | O=C1O[C@@H](Cn2ccnn2)CN1c1ccc(N2CCN(S(=O)(=O)c3cccc(C(F)(F)F)c3)CC2)c(F)c1 | 0.06 mg/L (≈ 0.108 µM) | 0.06 mg/L (≈ 0.108 µM) | 0.5 mg/L (≈ 0.902 µM) | 0.015 mg/L (≈ 0.0271 µM) | 0.03 mg/L (≈ 0.0541 µM) | 0.06 mg/L (≈ 0.108 µM) | – | – | –
8 | O=C1O[C@@H](Cn2ccnn2)CN1c1ccc(N2CCN(S(=O)(=O)c3ccc(C(F)(F)F)cc3)CC2)c(F)c1 | 0.5 mg/L (≈ 0.902 µM) | 0.5 mg/L (≈ 0.902 µM) | 1 mg/L (≈ 1.8 µM) | 0.5 mg/L (≈ 0.902 µM) | 0.5 mg/L (≈ 0.902 µM) | 1 mg/L (≈ 1.8 µM) | – | – | –
9 | O=C1O[C@@H](Cn2ccnn2)CN1c1ccc(N2CCN(S(=O)(=O)c3ccc(Cl)cc3)CC2)c(F)c1 | 0.5 mg/L (≈ 0.96 µM) | 0.125 mg/L (≈ 0.24 µM) | 0.5 mg/L (≈ 0.96 µM) | 0.125 mg/L (≈ 0.24 µM) | 0.25 mg/L (≈ 0.48 µM) | 0.5 mg/L (≈ 0.96 µM) | – | – | –
10 | O=C1O[C@@H](Cn2ccnn2)CN1c1ccc(N2CCN(S(=O)(=O)c3cccc(F)c3)CC2)c(F)c1 | 0.25 mg/L (≈ 0.496 µM) | 0.001 mg/L (≈ 0.00198 µM) | 1 mg/L (≈ 1.98 µM) | 0.002 mg/L (≈ 0.00396 µM) | 0.004 mg/L (≈ 0.00793 µM) | 0.25 mg/L (≈ 0.496 µM) | > 100 mg/kg | > 100 mg/kg | 55.1 mg/kg
11 | O=C1O[C@@H](Cn2ccnn2)CN1c1ccc(N2CCN(S(=O)(=O)c3ccc(F)cc3)CC2)c(F)c1 | 0.5 mg/L (≈ 0.991 µM) | 0.5 mg/L (≈ 0.991 µM) | 1 mg/L (≈ 1.98 µM) | 0.5 mg/L (≈ 0.991 µM) | 1 mg/L (≈ 1.98 µM) | 1 mg/L (≈ 1.98 µM) | – | – | –
12 | O=C1O[C@@H](Cn2ccnn2)CN1c1ccc(N2CCN(S(=O)(=O)c3ccc([N+](=O)[O-])cc3)CC2)c(F)c1 | 1 mg/L (≈ 1.88 µM) | 1 mg/L (≈ 1.88 µM) | 1 mg/L (≈ 1.88 µM) | 0.5 mg/L (≈ 0.941 µM) | 1 mg/L (≈ 1.88 µM) | 1 mg/L (≈ 1.88 µM) | – | – | –
13 | N#Cc1ccc(S(=O)(=O)N2CCN(c3ccc(N4C[C@H](Cn5ccnn5)OC4=O)cc3F)CC2)cc1 | 2 mg/L (≈ 3.91 µM) | 2 mg/L (≈ 3.91 µM) | 2 mg/L (≈ 3.91 µM) | 4 mg/L (≈ 7.82 µM) | 4 mg/L (≈ 7.82 µM) | 0.5 mg/L (≈ 0.977 µM) | – | – | –
14 | Nc1cccc(S(=O)(=O)N2CCN(c3ccc(N4C[C@H](Cn5ccnn5)OC4=O)cc3F)CC2)c1 | 0.5 mg/L (≈ 0.997 µM) | 0.125 mg/L (≈ 0.249 µM) | 1 mg/L (≈ 1.99 µM) | 0.5 mg/L (≈ 0.997 µM) | 0.25 mg/L (≈ 0.498 µM) | 0.25 mg/L (≈ 0.498 µM) | > 100 mg/kg | – | > 100 mg/kg
15 | O=C1O[C@@H](Cn2ccnn2)CN1c1ccc(N2CCN(S(=O)(=O)c3ccccc3)CC2)c(F)c1 | 0.5 mg/L (≈ 1.03 µM) | 1 mg/L (≈ 2.06 µM) | 2 mg/L (≈ 4.11 µM) | 1 mg/L (≈ 2.06 µM) | 2 mg/L (≈ 4.11 µM) | 1 mg/L (≈ 2.06 µM) | – | – | –
16 | O=C1O[C@@H](Cn2ccnn2)CN1c1ccc(N2CCN(S(=O)(=O)c3ccc(Br)cc3)CC2)c(F)c1 | 8 mg/L (≈ 14.1 µM) | 4 mg/L (≈ 7.07 µM) | 4 mg/L (≈ 7.07 µM) | 2 mg/L (≈ 3.54 µM) | 2 mg/L (≈ 3.54 µM) | 8 mg/L (≈ 14.1 µM) | – | – | –
17 | O=C1O[C@@H](Cn2ccnn2)CN1c1ccc(N2CCN(S(=O)(=O)c3cccc([N+](=O)[O-])c3)CC2)c(F)c1 | 0.06 mg/L (≈ 0.113 µM) | 0.06 mg/L (≈ 0.113 µM) | 0.5 mg/L (≈ 0.941 µM) | 0.015 mg/L (≈ 0.0282 µM) | 0.03 mg/L (≈ 0.0564 µM) | 0.06 mg/L (≈ 0.113 µM) | 84.3 mg/kg | > 100 mg/kg | 55.1 mg/kg
18 | O=C(OCc1ccccc1)N1CCN(c2ccc(N3C[C@H](Cn4ccnn4)OC3=O)cc2F)CC1 | 1 mg/L (≈ 2.08 µM) | 0.25 mg/L (≈ 0.52 µM) | 0.5 mg/L (≈ 1.04 µM) | 0.5 mg/L (≈ 1.04 µM) | 0.5 mg/L (≈ 1.04 µM) | 0.5 mg/L (≈ 1.04 µM) | – | – | –
19 | O=C1O[C@@H](Cn2ccnn2)CN1c1ccc(N2CCN(S(=O)(=O)c3ccccc3[N+](=O)[O-])CC2)c(F)c1 | 0.5 mg/L (≈ 0.941 µM) | 0.5 mg/L (≈ 0.941 µM) | 1 mg/L (≈ 1.88 µM) | 0.5 mg/L (≈ 0.941 µM) | 0.5 mg/L (≈ 0.941 µM) | 1 mg/L (≈ 1.88 µM) | – | – | –
20 | CC(=O)NC[C@H]1CN(c2ccc(N3CCOCC3)c(F)c2)C(=O)O1 [LINEZOLID] | 1 mg/L (≈ 2.96 µM) | 0.125 mg/L (≈ 0.371 µM) | 0.5 mg/L (≈ 1.48 µM) | 0.25 mg/L (≈ 0.741 µM) | 0.25 mg/L (≈ 0.741 µM) | 1 mg/L (≈ 2.96 µM) | 84.8 mg/kg | 17.9 mg/kg | 24 mg/kg
21 | CN[C@H](CC(C)C)C(=O)N[C@H]1C(=O)N[C@@H](CC(N)=O)C(=O)N[C@H]2C(=O)N[C@H]3C(=O)N[C@H](C(=O)N[C@H](C(=O)O)c4cc(O)cc(O)c4-c4cc3ccc4O)[C@H](O)c3ccc(c(Cl)c3)Oc3cc2cc(c3O[C@@H]2O[C@H](CO)[C@@H](O)[C@H](O)[C@H]2O[C@H]2C[C@](C)(N)[C@H](O)[C@H](C)O2)Oc2ccc(cc2Cl)[C@H]1O [VANCOMYCIN] | 0.5 mg/L (≈ 0.345 µM) | 0.25 mg/L (≈ 0.173 µM) | 0.25 mg/L (≈ 0.173 µM) | 0.25 mg/L (≈ 0.173 µM) | 0.25 mg/L (≈ 0.173 µM) | – | – | – | –

Reference: ChEMBL document CHEMBL1147903, “Synthesis and antibacterial activity of oxazolidinones containing triazolyl group” (2007)
